46 compounds from the Biogen ADME set (Fang et al. 2023) can be followed below.

For this data set the following is noted: for aqueous solubility: pH 6.8.

≈ marks a conversion by molar mass, not a printed value.

What is called aqueous solubility is the concentration that dissolves in the medium under given conditions. Regarding `O=C([C@H]1CCCN(Cc2ccc(F)cc2)C1)N1CCc2ccccc2C1`, the MDR1-MDCK efflux ratio worked out at 0.792; the intrinsic clearance, human liver microsomes was 336 mL/min/kg; the intrinsic clearance, rat liver microsomes was 3660 mL/min/kg; the aqueous solubility amounted to 50 µg/mL (≈ 142 µM).

On to `CC1(C)CC[C@]2(NC(=O)C(C)(F)F)CC[C@]3(C)[C@H](C(=O)C=C4[C@@]5(C)C=C(C#N)C(=O)C(C)(C)[C@@H]5CC[C@]43C)[C@@H]2C1`, for which the MDR1-MDCK efflux ratio was determined as 6.31; the fraction unbound, rat plasma is 0.0088; the intrinsic clearance, human liver microsomes turned out to be 76.7 mL/min/kg; the intrinsic clearance, rat liver microsomes stood at 145 mL/min/kg.

For `COc1cccc(F)c1NC(=O)N1CCC(N2CC=CC2)CC1`, the MDR1-MDCK efflux ratio amounted to 8.24; the intrinsic clearance, human liver microsomes was no more than 4.74 mL/min/kg; the intrinsic clearance, rat liver microsomes stood at 363 mL/min/kg.

With `O=C(NC1CCCC1)C1=CCN(C(=O)C2CC2)C1`, the MDR1-MDCK efflux ratio turned out to be 5.2; the intrinsic clearance, human liver microsomes is no more than 4.74 mL/min/kg; the intrinsic clearance, rat liver microsomes turned out to be 37.3 mL/min/kg.

Turning to `O=S(=O)(c1ccccc1Cl)N1CCCc2cnc(N3CCOCC3)nc21`, the MDR1-MDCK efflux ratio turned out to be 0.697 and the aqueous solubility was found to be 1 µg/mL (≈ 2.53 µM).

For `Cc1ccc(CCNc2ccc(C#N)nc2)cn1`, the MDR1-MDCK efflux ratio amounted to 0.552; the intrinsic clearance, human liver microsomes is no more than 4.74 mL/min/kg; the intrinsic clearance, rat liver microsomes was 45.1 mL/min/kg.

Consider `COc1ccc(CNC(=O)c2nnn(-c3ccc(OC)cc3)c2N)cc1`, for which the MDR1-MDCK efflux ratio stood at 0.513; the intrinsic clearance, human liver microsomes turned out to be 7.49 mL/min/kg; the intrinsic clearance, rat liver microsomes was 80.4 mL/min/kg; the aqueous solubility was found to be 11.5 µg/mL (≈ 32.7 µM).

Turning to `Clc1ccc2c(Oc3cccnc3)ncnc2c1`, the MDR1-MDCK efflux ratio came to 0.654; the intrinsic clearance, human liver microsomes was 16.7 mL/min/kg; the intrinsic clearance, rat liver microsomes was 47 mL/min/kg; the aqueous solubility worked out at 39.7 µg/mL (≈ 154 µM).

Regarding `CC(C)c1cccc(CN2C(=O)N(C)C3(CCCCC3)C2=O)n1`, the MDR1-MDCK efflux ratio stood at 1.13; the intrinsic clearance, human liver microsomes was 826 mL/min/kg; the intrinsic clearance, rat liver microsomes is 4200 mL/min/kg; the aqueous solubility worked out at 35 µg/mL (≈ 111 µM).

`Cc1c(C(=O)NC2CCN(CC3CCCCC3)CC2)cnn1C`: the MDR1-MDCK efflux ratio is 6.82; the intrinsic clearance, human liver microsomes is no more than 4.74 mL/min/kg; the intrinsic clearance, rat liver microsomes is no more than 10.7 mL/min/kg; the aqueous solubility came out at 48.9 µg/mL (≈ 154 µM).

With `COc1cc(OC)cc(C(=O)NCc2noc(-c3ccccc3)n2)c1`, the MDR1-MDCK efflux ratio turned out to be 0.335; the intrinsic clearance, human liver microsomes was determined as 34.9 mL/min/kg; the intrinsic clearance, rat liver microsomes came out at 628 mL/min/kg.

On to `CN(Cc1ccncc1)Cc1cc2ccccc2nc1O`, for which the MDR1-MDCK efflux ratio turned out to be 2.51; the intrinsic clearance, human liver microsomes amounted to 15.4 mL/min/kg; the intrinsic clearance, rat liver microsomes amounted to 222 mL/min/kg; the aqueous solubility stood at 48.6 µg/mL (≈ 174 µM).

Consider `CCc1cc(CNC(=O)NC2CCN(CC3CCCCC3)CC2)on1`, for which the MDR1-MDCK efflux ratio is 26.6; the intrinsic clearance, human liver microsomes is no more than 4.74 mL/min/kg; the intrinsic clearance, rat liver microsomes stood at 80.4 mL/min/kg.

Consider `Cc1ccccc1-n1nc(C(C)(C)C)cc1N`, for which the MDR1-MDCK efflux ratio was found to be 0.607; the intrinsic clearance, human liver microsomes worked out at 6.55 mL/min/kg; the intrinsic clearance, rat liver microsomes was no more than 10.7 mL/min/kg; the aqueous solubility worked out at 44.8 µg/mL (≈ 195 µM).

`COc1ccc(Br)c(-c2nnc(N)o2)c1`: the MDR1-MDCK efflux ratio came to 0.707; the intrinsic clearance, human liver microsomes was 16.4 mL/min/kg; the intrinsic clearance, rat liver microsomes was determined as 59.2 mL/min/kg; the aqueous solubility was 24.8 µg/mL (≈ 91.7 µM).

On to `O=c1cc(CN2CCCCc3ccccc32)[nH]c2ccnn12`, for which the MDR1-MDCK efflux ratio came out at 6.78; the intrinsic clearance, human liver microsomes stood at 34.2 mL/min/kg; the intrinsic clearance, rat liver microsomes was determined as 481 mL/min/kg; the aqueous solubility was determined as 14.3 µg/mL (≈ 48.5 µM).

With `O=C(Nc1ccc2sccc2c1)N1CCCN(C(=O)Oc2ccccc2)CC1`, the MDR1-MDCK efflux ratio was determined as 1.31; the intrinsic clearance, human liver microsomes is 78.3 mL/min/kg; the intrinsic clearance, rat liver microsomes is 765 mL/min/kg; the aqueous solubility is 37.9 µg/mL (≈ 95.7 µM).

Consider `N#CC[C@H](C1CCCC1)n1cc(-c2ncnc3[nH]ccc23)cn1`, for which the MDR1-MDCK efflux ratio came out at 10.9; the fraction unbound, human plasma came to 0.0428; the fraction unbound, rat plasma came to 0.176; the intrinsic clearance, rat liver microsomes worked out at 405 mL/min/kg. In addition, the aqueous solubility is 34.5 µg/mL (≈ 113 µM).

In turn, `Cc1cc(C(=O)N2CCS(=O)(=O)CC2)c(C)o1` showed an intrinsic clearance, human liver microsomes of no more than 4.74 mL/min/kg and an intrinsic clearance, rat liver microsomes of no more than 10.7 mL/min/kg.

In turn, `N#Cc1ccc(OCc2nnc(S)n2-c2ccccc2)cc1` had an aqueous solubility of 45.7 µg/mL (≈ 148 µM).

As to `CCCS(=O)(=O)Nc1ccc(F)c(C(=O)c2c[nH]c3ncc(-c4ccc(Cl)cc4)cc23)c1F`, the MDR1-MDCK efflux ratio was 5.52; the fraction unbound, human plasma amounted to 0.00025; the aqueous solubility was 0.35 µg/mL (≈ 0.714 µM).

Turning to `CC(C)c1noc(-c2ccc(N(C)Cc3cccnc3)nc2)n1`, the MDR1-MDCK efflux ratio is 0.511; the intrinsic clearance, human liver microsomes was found to be 45.6 mL/min/kg; the intrinsic clearance, rat liver microsomes was 459 mL/min/kg; the aqueous solubility turned out to be 36.6 µg/mL (≈ 118 µM).

As to `CC(C)CC(NC(=O)C(O)C(N)Cc1ccccc1)C(=O)O` (stereo not given), the MDR1-MDCK efflux ratio stood at 0.744 and the fraction unbound, rat plasma turned out to be 0.347.

Take `CCC[C@@H]1C[C@@H](C(=O)N[C@@H]([C@H]2O[C@H](SC)[C@H](O)[C@@H](O)[C@@H]2O)[C@@H](C)O)N(C)C1`: the MDR1-MDCK efflux ratio was found to be 2.51; the intrinsic clearance, human liver microsomes was determined as 13.3 mL/min/kg; the intrinsic clearance, rat liver microsomes amounted to 88.3 mL/min/kg.

The compound `N#CCCn1ncnc1-c1cccc(C#N)c1` had an intrinsic clearance, human liver microsomes of no more than 4.74 mL/min/kg and an intrinsic clearance, rat liver microsomes of no more than 10.7 mL/min/kg.

For the compound `O=C(O)Cc1ccc(Oc2ccncc2)cc1`, the MDR1-MDCK efflux ratio was determined as 1.2; the intrinsic clearance, human liver microsomes was no more than 4.74 mL/min/kg; the intrinsic clearance, rat liver microsomes was no more than 10.7 mL/min/kg.

On to `Cc1nn(C)c2ncc(CNc3ccon3)cc12`, for which the MDR1-MDCK efflux ratio worked out at 0.858; the intrinsic clearance, human liver microsomes is no more than 4.74 mL/min/kg; the intrinsic clearance, rat liver microsomes came out at 14.2 mL/min/kg.

As for `CN1CCN(Cc2noc(Cc3ccccc3)n2)c2ccccc21`, the MDR1-MDCK efflux ratio came to 0.641; the intrinsic clearance, human liver microsomes turned out to be 341 mL/min/kg; the intrinsic clearance, rat liver microsomes turned out to be 2000 mL/min/kg; the aqueous solubility is 14.1 µg/mL (≈ 44 µM).

For the compound `Cc1nc2ncc3c(n2n1)CC(C)(C)CC3=O`, the MDR1-MDCK efflux ratio came out at 0.814; the intrinsic clearance, human liver microsomes was no more than 4.74 mL/min/kg; the intrinsic clearance, rat liver microsomes was no more than 10.7 mL/min/kg.

Consider `COCC(=O)N1CCC(Cc2ccccc2-c2cccc(F)c2)(C(=O)NC(C)C)CC1`, for which the MDR1-MDCK efflux ratio is 33.1; the fraction unbound, human plasma amounted to 0.0395; the fraction unbound, rat plasma was found to be 0.119; the intrinsic clearance, human liver microsomes was determined as 149 mL/min/kg. The intrinsic clearance, rat liver microsomes came out at 572 mL/min/kg.

Consider `c1ccc(CC2=NCCN2)cc1`, for which the MDR1-MDCK efflux ratio is 0.361; the intrinsic clearance, human liver microsomes is no more than 4.74 mL/min/kg; the intrinsic clearance, rat liver microsomes is no more than 10.7 mL/min/kg.

Regarding `N#Cc1cc(-c2ccccc2)sc1N`, the aqueous solubility amounted to 3 µg/mL (≈ 15 µM).

Consider `Cc1csc(NC(=O)c2cccc(C)c2C)n1`, for which the intrinsic clearance, human liver microsomes was found to be 173 mL/min/kg; the intrinsic clearance, rat liver microsomes was determined as 916 mL/min/kg; the aqueous solubility is 11.3 µg/mL (≈ 45.8 µM).

Take `CNC(=O)c1cccc(NC(=O)N2CCC(Oc3ccccc3Cl)CC2)c1`: the MDR1-MDCK efflux ratio worked out at 20; the fraction unbound, human plasma came out at 0.117; the intrinsic clearance, human liver microsomes is 6.6 mL/min/kg; the intrinsic clearance, rat liver microsomes was 223 mL/min/kg. This compound also had an aqueous solubility of 68.8 µg/mL (≈ 177 µM).

Consider `O=c1ncn2nc(Sc3ccc(F)cc3F)ccc2c1-c1c(Cl)cccc1Cl`, for which the MDR1-MDCK efflux ratio came out at 8.01; the intrinsic clearance, human liver microsomes was 14.6 mL/min/kg; the intrinsic clearance, rat liver microsomes is 90.4 mL/min/kg; the aqueous solubility was 12.9 µg/mL (≈ 29.6 µM).

Take `CNC(=O)C1CCN(Cc2ncc(-c3ccc(F)cc3)o2)CC1`: the MDR1-MDCK efflux ratio was found to be 4.86; the intrinsic clearance, human liver microsomes was no more than 4.74 mL/min/kg; the intrinsic clearance, rat liver microsomes is 11.2 mL/min/kg; the aqueous solubility was found to be 19.8 µg/mL (≈ 62.4 µM).

For `O=S(=O)(Nc1ccc(C(O)(C(F)(F)F)C(F)(F)F)cc1)c1ccccc1`, the intrinsic clearance, human liver microsomes was determined as 7.61 mL/min/kg and the intrinsic clearance, rat liver microsomes stood at 17.1 mL/min/kg.

For `Cc1ccnc(C2CCN(C3CCCC3)CC2)n1`, the MDR1-MDCK efflux ratio amounted to 1.12; the intrinsic clearance, human liver microsomes was no more than 4.74 mL/min/kg; the intrinsic clearance, rat liver microsomes came out at 848 mL/min/kg; the aqueous solubility is 16.1 µg/mL (≈ 65.5 µM).

On to `COc1ccc(-c2ccc(CN(CCN3CCOCC3)Cc3cccnc3)cc2)cc1`, for which the MDR1-MDCK efflux ratio came out at 1.48; the intrinsic clearance, human liver microsomes is 447 mL/min/kg; the intrinsic clearance, rat liver microsomes was determined as 1580 mL/min/kg; the aqueous solubility turned out to be 63.2 µg/mL (≈ 151 µM).

`Cc1c[nH]c(C(=O)NCC2(N3CCCCC3)CCCC2)n1`: the MDR1-MDCK efflux ratio worked out at 20.3; the intrinsic clearance, human liver microsomes was determined as 7.62 mL/min/kg; the intrinsic clearance, rat liver microsomes turned out to be 191 mL/min/kg.

Take `CCCc1nc(N2CCc3ccccc3C2)ncc1C(=O)O`: the MDR1-MDCK efflux ratio is 0.725; the intrinsic clearance, human liver microsomes was no more than 4.74 mL/min/kg; the intrinsic clearance, rat liver microsomes was 39.3 mL/min/kg; the aqueous solubility came out at 51.4 µg/mL (≈ 173 µM).

`Cc1ccncc1NC(=O)Cc1ccc(F)cc1` gave an intrinsic clearance, human liver microsomes of no more than 4.74 mL/min/kg and an intrinsic clearance, rat liver microsomes of 20.4 mL/min/kg.

Turning to `CC1(C)COCCN1Cc1cnn(-c2ccccc2)n1`, the MDR1-MDCK efflux ratio stood at 0.545; the intrinsic clearance, human liver microsomes was 10.7 mL/min/kg; the intrinsic clearance, rat liver microsomes was determined as 1070 mL/min/kg; the aqueous solubility came to 14.7 µg/mL (≈ 54.1 µM).

With `CC(C)C(=O)N1CC(Cc2nccc3ccn(C)c23)C1`, the MDR1-MDCK efflux ratio worked out at 7.28; the intrinsic clearance, human liver microsomes is no more than 4.74 mL/min/kg; the intrinsic clearance, rat liver microsomes was 51.9 mL/min/kg; the aqueous solubility amounted to 62.7 µg/mL (≈ 231 µM).

Consider `CN(Cc1ccc(OC(F)(F)F)cc1)Cc1cn(C)nn1`, for which the MDR1-MDCK efflux ratio came out at 0.666; the intrinsic clearance, human liver microsomes worked out at 15 mL/min/kg; the intrinsic clearance, rat liver microsomes came out at 290 mL/min/kg.

On to `Cc1ccc(-c2ccccc2-c2nc3c(cnn3C3CCN(C)CC3)[nH]2)o1`, for which the MDR1-MDCK efflux ratio was determined as 40.1; the intrinsic clearance, human liver microsomes is no more than 4.74 mL/min/kg; the intrinsic clearance, rat liver microsomes was 100 mL/min/kg; the aqueous solubility was 40.5 µg/mL (≈ 112 µM).
